Patent US20060168668A1, “Phosphodiesterase 2a and methods of use” (Memory Pharmaceuticals Corporation, priority 2003, published 2006)

Tests used:
Type in all cases: biochemical
recombinant human PDE2A4 [1] = target: T1, recombinant human PDE2A4 (Homo sapiens, UniProt O00408, P38L/T213A/V664A); assay: Inhibition of recombinant human PDE2A4 enzyme activity (QM7 lysate); settings: QM7 lysate containing recombinant human PDE2A4
T1 construct: made in house; host or cells: QM-7 cells (quail myoblast line), transient transfection, crude cell lysate
T1 sequence (O00408 1-932 isoform O00408-4 P29L/T204A/V655A): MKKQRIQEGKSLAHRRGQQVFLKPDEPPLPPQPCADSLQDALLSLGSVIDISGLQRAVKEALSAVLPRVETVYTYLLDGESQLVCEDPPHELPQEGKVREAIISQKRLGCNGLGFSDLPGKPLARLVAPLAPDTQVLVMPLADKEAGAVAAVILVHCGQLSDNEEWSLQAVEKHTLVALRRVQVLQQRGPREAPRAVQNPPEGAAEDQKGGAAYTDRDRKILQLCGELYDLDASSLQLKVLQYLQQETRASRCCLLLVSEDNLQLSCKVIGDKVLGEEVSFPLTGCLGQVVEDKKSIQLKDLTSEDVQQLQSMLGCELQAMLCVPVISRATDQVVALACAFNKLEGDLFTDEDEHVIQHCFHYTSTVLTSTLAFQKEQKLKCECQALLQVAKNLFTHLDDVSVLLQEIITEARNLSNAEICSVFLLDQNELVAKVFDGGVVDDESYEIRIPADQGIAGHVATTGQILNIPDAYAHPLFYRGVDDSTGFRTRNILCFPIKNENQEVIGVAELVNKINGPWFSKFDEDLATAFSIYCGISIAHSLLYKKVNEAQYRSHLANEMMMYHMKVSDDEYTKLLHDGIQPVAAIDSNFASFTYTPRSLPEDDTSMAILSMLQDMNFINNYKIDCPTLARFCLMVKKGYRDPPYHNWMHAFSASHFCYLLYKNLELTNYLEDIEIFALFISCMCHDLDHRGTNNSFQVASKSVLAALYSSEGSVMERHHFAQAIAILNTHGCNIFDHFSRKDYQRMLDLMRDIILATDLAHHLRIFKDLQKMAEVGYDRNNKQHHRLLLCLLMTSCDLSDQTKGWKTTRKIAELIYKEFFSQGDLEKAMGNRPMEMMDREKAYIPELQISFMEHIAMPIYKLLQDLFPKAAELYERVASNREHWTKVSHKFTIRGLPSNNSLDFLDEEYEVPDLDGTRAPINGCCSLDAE
Experimental: FIG. 3. EHNA inhibition of hsPDE2A4 activity. QM7 lysate containing recombinant human PDE2A4 was used in inhibition assay with increased concentration of inhibitors (EHNA and Rolipram; 10^−9-10^−[…]). The data and graph were analyzed and generated using Prism software.
(§1) To express in active form, human PDE2A4 cDNA was cloned downstream of the CMV promoter into pcDNA3.1/V5-His-TOPO vector, and the plasmid was transiently transfected into QM-7 cells by lipofectamine-plus reagent (Invitrogen). Forty-eight hours after the transfection, the QM-7 cells were lysed in buffer containing 50 mM Tris/HCl, 10 mM NaCl, 5 mM EGTA, 1 mM EDTA, 1 mM DTT and proteinase inhibitor cocktail (Roche). The cell lysate was used as a source for recombinant hsPDE2A4 enzyme.
(§2) The enzyme activity assay was performed according to Thompson et al, Ann N Y Acad Sci, 185:36-41 (1971) and Alvarez et al, Anal Biochem, 203:76-82 (1992) in the presence of 50 mM Tris/HCl, pH 8.0, 5 mM MgCl2, 4 mM 2-mercaptoethanol and 0.3 mg/ml BSA. […] The experiments were performed in duplicates for each substrate concentration. The Km and Vmax were calculated with Michaelis-Menten equation on Prism software.

recombinant human PDE2A4 [2] = target: T1, recombinant human PDE2A4; assay: cGMP stimulation of hsPDE2A4 cAMP-hydrolyzing activity; settings: 10 μM cGMP; cAMP substrate 30 μM ([3H]-cAMP/cAMP)
Experimental: FIG. 4. cGMP stimulation of hsPDE2A4 activity. QM7 lysate containing recombinant human PDE2A4 was used in stimulation assay. […] The enzyme activities in the absence or presence of 10 μM cGMP were compared. Data analysis was performed using Prism software.
as §1, §2
The enzymatic activity of recombinant human PDE2A4 can be stimulated by cGMP, a unique characteristic for PDE2 gene family (FIG. 4).

recombinant human PDE2A4 [3] = target: T1, recombinant human PDE2A4; assay: Enzyme activity assay, Km and Vmax of human PDE2A4 for cAMP and cGMP
Experimental: as §1, §2

[4] = substrate of human PDE2A4, QM-7 cell lysate, Michaelis-Menten, Prism

CCCCCCC(C(C)O)n1cnc2c(N)ncnc21 (stereo not drawn) [EHNA, erythro-9-(2-hydroxy-3-nonyl)adenine]
IC50 (recombinant human PDE2A4 [1]; inhibitors 10^−9-10^−4 μM, read-out: IC50, inhibition of enzymatic activity of recombinant human PDE2A4): 1.1 µM

COc1ccc(C2CNC(=O)C2)cc1OC1CCCC1 (stereo not drawn) [Rolipram]
inhibitory effect on human PDE2A4 enzyme activity (recombinant human PDE2A4 [1]; inhibitors 10^−9-10^−4 μM (FIG. 3)): no inhibitory effect

Nc1nc2c(ncn2[C@@H]2O[C@@H]3COP(=O)(O)O[C@H]3[C@H]2O)c(=O)[nH]1 [cGMP, cyclic guanosine 5′ monophosphate]
stimulation of activity for hydrolyzing cAMP (recombinant human PDE2A4 [2]): elevated more than three-fold | affinity of human PDE2A4 for cGMP relative to cAMP (recombinant human PDE2A4 [3]; cGMP versus cAMP): ~2 fold | Km (recombinant human PDE2A4 [3]; [4]): 17.5 µM | Vmax (recombinant human PDE2A4 [3]; [4]): Vmax = 334.4 ± 16.0 pmol/mg/min
